For one data set, the target named is T1, Toll-like receptor 9 (Homo sapiens, UniProt Q9NR96).
T1 sequence (Q9NR96 whole entry): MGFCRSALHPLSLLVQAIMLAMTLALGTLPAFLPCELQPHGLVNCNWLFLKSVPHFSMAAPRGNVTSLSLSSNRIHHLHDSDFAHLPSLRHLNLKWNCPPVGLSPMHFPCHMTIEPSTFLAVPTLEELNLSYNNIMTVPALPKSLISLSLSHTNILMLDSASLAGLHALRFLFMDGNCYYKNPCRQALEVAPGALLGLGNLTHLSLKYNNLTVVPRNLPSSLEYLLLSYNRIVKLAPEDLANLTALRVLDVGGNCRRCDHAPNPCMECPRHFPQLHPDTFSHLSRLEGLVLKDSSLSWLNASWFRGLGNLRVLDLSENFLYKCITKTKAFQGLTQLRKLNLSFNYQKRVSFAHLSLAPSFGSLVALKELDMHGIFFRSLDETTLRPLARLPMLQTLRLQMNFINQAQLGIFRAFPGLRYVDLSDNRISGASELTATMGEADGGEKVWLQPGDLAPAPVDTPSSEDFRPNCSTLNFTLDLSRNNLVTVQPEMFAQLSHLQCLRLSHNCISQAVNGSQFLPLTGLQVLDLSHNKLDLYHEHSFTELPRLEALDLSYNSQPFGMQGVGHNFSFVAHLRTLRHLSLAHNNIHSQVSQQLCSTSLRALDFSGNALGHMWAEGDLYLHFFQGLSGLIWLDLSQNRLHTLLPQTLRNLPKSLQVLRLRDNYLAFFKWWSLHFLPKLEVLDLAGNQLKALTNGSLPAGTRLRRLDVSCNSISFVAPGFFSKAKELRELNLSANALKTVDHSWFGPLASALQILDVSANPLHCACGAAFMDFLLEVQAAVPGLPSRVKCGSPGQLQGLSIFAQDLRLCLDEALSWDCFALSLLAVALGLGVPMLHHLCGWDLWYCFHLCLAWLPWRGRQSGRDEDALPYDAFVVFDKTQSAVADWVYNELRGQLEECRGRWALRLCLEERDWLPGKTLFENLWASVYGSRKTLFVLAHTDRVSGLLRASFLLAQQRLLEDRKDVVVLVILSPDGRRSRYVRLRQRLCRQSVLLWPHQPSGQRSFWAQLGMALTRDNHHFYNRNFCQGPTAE
In words: Antagonist activity at human TLR9 expressed in human whole blood assessed as inhibition of ODN2216 stimulated IFNalpha level preincubated for 30 mins followed by stimulation and measured after 20 hrs by AlphaLISA method. The class given is tissue-based. On the technique in general: Bead proximity is the source of the signal in Alpha formats.

Data set [1] in a line: Drug exposure in 129Sv mouse blood at 0.3 mg/kg, po by LC-MS/MS analysis. The format is ADME, organism-based. Conditions: in vivo, read-out: Drug uptake.
Data set [2] in a line: Drug exposure in 129Sv mouse blood at 3 mg/kg, po by LC-MS/MS analysis. The class given is ADME, organism-based. Conditions: in vivo, read-out: Drug uptake.
In a further data set the target is T2, Toll-like receptor 7 (Homo sapiens, UniProt Q9NYK1).
T2 sequence (Q9NYK1 whole entry): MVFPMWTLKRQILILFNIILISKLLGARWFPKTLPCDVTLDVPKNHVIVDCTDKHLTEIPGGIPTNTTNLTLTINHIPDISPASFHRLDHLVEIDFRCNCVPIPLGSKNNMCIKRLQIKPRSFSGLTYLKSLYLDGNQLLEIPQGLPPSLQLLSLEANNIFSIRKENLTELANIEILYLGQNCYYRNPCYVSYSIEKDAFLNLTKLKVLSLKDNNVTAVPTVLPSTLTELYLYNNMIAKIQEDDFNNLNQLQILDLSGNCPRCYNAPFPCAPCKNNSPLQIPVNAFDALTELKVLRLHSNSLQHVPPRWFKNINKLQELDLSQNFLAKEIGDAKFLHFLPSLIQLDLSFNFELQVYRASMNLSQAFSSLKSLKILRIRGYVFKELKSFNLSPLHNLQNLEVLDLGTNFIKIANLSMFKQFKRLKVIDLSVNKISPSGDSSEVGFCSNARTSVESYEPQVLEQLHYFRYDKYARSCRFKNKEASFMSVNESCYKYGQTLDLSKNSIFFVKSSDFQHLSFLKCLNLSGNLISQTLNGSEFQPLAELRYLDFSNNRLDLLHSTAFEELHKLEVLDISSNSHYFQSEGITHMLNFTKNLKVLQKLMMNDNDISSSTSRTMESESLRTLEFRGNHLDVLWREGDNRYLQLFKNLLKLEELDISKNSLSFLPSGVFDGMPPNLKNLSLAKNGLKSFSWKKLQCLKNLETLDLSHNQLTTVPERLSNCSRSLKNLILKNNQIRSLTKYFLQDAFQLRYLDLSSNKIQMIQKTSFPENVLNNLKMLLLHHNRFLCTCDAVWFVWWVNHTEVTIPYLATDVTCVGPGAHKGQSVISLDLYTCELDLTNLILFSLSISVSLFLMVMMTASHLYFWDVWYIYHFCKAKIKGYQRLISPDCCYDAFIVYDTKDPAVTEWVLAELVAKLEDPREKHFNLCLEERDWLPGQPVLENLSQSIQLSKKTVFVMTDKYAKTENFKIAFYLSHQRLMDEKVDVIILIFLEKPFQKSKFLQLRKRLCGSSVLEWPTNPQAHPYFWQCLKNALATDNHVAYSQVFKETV
The data set can be described thus: Antagonist activity at human TLR7 expressed in human PBMC cells assessed as inhibition of ssRNA stimulated IFNalpha level preincubated for 30 mins followed by stimulation and measured after 20 hrs by AlphaLISA method. The format is cell-based.

The next data set concerns the target Toll-like receptor 4 (Homo sapiens, UniProt O00206). In words: Antagonist activity at human TLR4 expressed in human PBMC cells assessed as inhibition of LPS stimulated TNF level preincubated for 30 mins followed by stimulation and measured after 20 hrs by multiplate reader assay. The format is cell-based.

Chain of Toll-like receptor 4 (O00206 whole entry): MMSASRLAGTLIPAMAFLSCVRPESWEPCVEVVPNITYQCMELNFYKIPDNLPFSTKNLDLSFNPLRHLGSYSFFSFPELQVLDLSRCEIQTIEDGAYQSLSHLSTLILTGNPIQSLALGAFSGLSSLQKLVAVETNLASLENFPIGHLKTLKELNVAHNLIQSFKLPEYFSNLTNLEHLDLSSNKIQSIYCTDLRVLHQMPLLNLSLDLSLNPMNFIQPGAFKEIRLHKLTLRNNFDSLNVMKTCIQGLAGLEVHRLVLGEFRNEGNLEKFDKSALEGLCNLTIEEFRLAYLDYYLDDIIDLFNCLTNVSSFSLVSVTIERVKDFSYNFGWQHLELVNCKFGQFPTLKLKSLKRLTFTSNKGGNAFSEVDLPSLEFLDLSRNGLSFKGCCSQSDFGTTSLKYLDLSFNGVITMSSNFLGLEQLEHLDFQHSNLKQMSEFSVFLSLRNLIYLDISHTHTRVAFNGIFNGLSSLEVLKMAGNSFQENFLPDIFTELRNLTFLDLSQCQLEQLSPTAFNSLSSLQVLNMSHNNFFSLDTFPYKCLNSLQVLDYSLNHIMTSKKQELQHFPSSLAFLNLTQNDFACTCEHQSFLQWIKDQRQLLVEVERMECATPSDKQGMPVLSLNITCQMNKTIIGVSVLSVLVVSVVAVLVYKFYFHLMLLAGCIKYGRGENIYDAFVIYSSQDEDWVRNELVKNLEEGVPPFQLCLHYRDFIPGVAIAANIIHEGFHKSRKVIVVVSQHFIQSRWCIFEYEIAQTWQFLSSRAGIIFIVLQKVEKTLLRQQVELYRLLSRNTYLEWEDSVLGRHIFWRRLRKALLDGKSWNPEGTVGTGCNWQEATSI

What is called IC50 is the concentration at which inhibition is half-maximal. In the case of `Cc1cc(-c2cc3[nH]nc(N[C@@H]4CCNC[C@H]4F)c3cc2C2CC2)cc(C)n1`, the values for the IC50 at Toll-like receptor 9, on Toll-like receptor 7 and on Toll-like receptor 4 were 390 nM, 7 nM and over 8000 nM, respectively. For the same molecule, the concentration in data set [1] is 1.3 nM; in data set [2], 110 nM.
